# According to patent US20120094939A1, “ANTI-VIRAL COMPOUNDS, COMPOSITIONS AND METHODS” (priority 2007, published 2012):
# Where two headings read alike, the source gives them in different places.
# Assays:
# [1] = tested on: Huh7/Rep-Feo HCV replicon (HCV RNA replication); format: cell-based, Hepatitis C virus (strain HCV—N, genotype 1b)
# Excerpt: Development of the Huh7/Rep-Feo replicon assay. […] This replicon was derived from a chimpanzee infectious clone (strain HCV—N, genotype 1b). In this replicon, the structural genes have been replaced by a reporter gene. The chimeric reporter gene Feo encodes the firefly luciferase protein fused in-frame with neomycin phosphotransferase. This Huh7/Rep-Feo cell supports high levels of autonomous HCV RNA replication because it was derived from the HCV—N strain, which carries an adaptive mutation in NSSA that confers highlevel replication in tissue culture. Furthermore, the level of luciferase correlates well with levels of HCV RNA production, so that luciferase can be used as a reliable surrogate marker for HCV replication. The use of luciferase as a reporter permits quantitative and highthroughput detection of HCV replication levels. The specific use of firefly luciferase makes this replicon especially well-suited for automation, because the luciferase reagent can be added directly to the cell culture system prior to signal detection without the need for cell lysis, washing, or aspiration.
# HCV Replicon System-Primary Screening. […] Briefly, this replicon harbors a subgenomic HCV genotype 1b sequence, fused to firefly luciferase, stably replicating under neomycin selection. Cells were propagated in Dulbecco's Modified Eagle's medium (DMEM) containing 10% fetal bovine serum (FBS) supplemented with 1% penicillin-streptomycin, and 500 μg of Geneticin (Invitrogen Corp., Carlsbad, Calif.)/mL. Cells were cultured in a 37° C., 5% CO2-humidified incubator for all experiments. To decrease day-today variability in the assay, a large homogenous population of subconfluent cells was passaged so that a similar lot of cells could be used throughout the HTS assay.
# (§1) Primary Screening-HTS. Information about the library of known bioactive compounds that was screened and the general automated HTS protocol is available at http://www.broad.harvard.edu/chembio/index.html (see FIG. 10 for list of primary HTS with known bioactives library). Based on the results of optimization experiments in the 384-well plate format, the general HTS protocol was adapted as follows. Unless otherwise indicated, cells were incubated at all times in a humidified environment with 5% CO2 at 37° C. The assay was initiated by plating 30 μL of medium containing 2000 cells/well into white 384-well opaque-bottom plates (Nunc, Rochester, N.Y.) using an automated plate filler (Bio-Tek uFiller; Winsooki, Vt.) and allowing the cells to adhere for 24 hours. One hundred nL of compound stock solutions in DMSO was transferred from stock plates into the 384-well assay plates using an automated pin-based compound transfer robot (CyBio CyBi-Well vario; Woburn, Mass.). The final compound concentration in each well was estimated to be approximately 10-50 μM, with most compounds at 33 μM. The wells contained 0.33% DMSO by volume. The cells were then incubated for another 48 hours. The luminescent signal from each plate was detected using an automated plate reader (Perkin-Elmer Envision 1; Wellesley, Mass.). This screen was performed in duplicate. For negative controls, entire DMSO-treated control plates were employed, in addition to DMSO-only control wells that were incorporated into each compound assay plate. The cells were assayed for luciferase activity using the Bright-Glo Luciferase assay system (Promega), following the manufacturer's instructions. As a counter-screen, cell viability was assessed using the CellTiterGlo Luminescent cell viability assay (Promega) following the manufacturer's instructions.
# Computational Data Analysis-Primary Screening. For each replicate, a mock-treatment distribution based on the total population of mock (DMSO) controls in that replicate was built (FIG. 11).
# [2] = tested on: OR6 cells harboring full-length genotype 1b HCV replicon ORN/C-5B/KE (HCV RNA replication); assay: microbe, parasite or virus in culture; format: cell-based, Hepatitis C virus (strain HCV—O; conditions: for antiviral activity (in words) / proviral effect on HCV replication (in words): OR6 full-length replicon; for proviral effect on HCV replication (in words): 0.1-100 μM
# Excerpt: (§2) HCV Replicon System-Secondary Assays. For validation, OR6 cells stably harboring the full-length genotype 1 replicon, ORN/C-5B/KE9 were used to examine compound activity in a more authentic viral polyprotein context. This replicon was derived from the 1B-2 strain (strain HCV—O, genotype 1b), in which the Renilla luciferase gene is introduced as a fusion protein with neomycin to facilitate the monitoring of HCV replication. This construct contains a tissue culture adaptive mutation in the NS3 region. Cells were cultured in an identical manner to the Huh7/Rep-Feo cells.
# Secondary Assays-Hit Validation. Several hits from primary HTS, as well as functionally related compounds, were purchased from Sigma (St. Louis, Mo.), Calbiochem (San Diego, Calif.), and Microsource (Gaylordsville, Conn.). […] Ten mM of stock solutions of the individual compounds to be tested was prepared in the appropriate solvent (DMSO, ethanol, or H2O, according to the manufacturer's information) and stored at −20° C. Cells were seeded into 96-well plates at a density of 2000 cells/well in 100 μL of medium. The cells were incubated for 24 hours at 37° C. to obtain the optimal level of adherence. Solutions of candidate hit compounds were added to wells to achieve final concentrations of 0.1, 1, 10, 50, and 100 μM. The final concentration of DMSO or ethanol in every well was 1% or less by volume. Mock solutions were used as a negative control. PEG-IFN and ribavirin were used as positive controls at various concentrations, alone and in combination. The plates were then incubated at 37° C. with 5% CO2 for 48 hours before they were analyzed. Luminescent signal was generated using the Renilla luciferase assay kit (Promega) according to the manufacturer's instructions. Signal was then detected using a LumiCount (Packard BioScience Company) luminometer. Cell viability was assessed using CellTiter-Glo (Promega), following the manufacturer's instructions. All experiments were performed in triplicate.
# Secondary Assays-Data Analysis. Values were presented as a percentage of mock treated control, which was arbitrarily set at 100%. Data were expressed as the mean (±) SD. […] Synergy calculations were performed using CalcuSyn (Biosoft; Cambridge, England).
# as §2, with “System—Secondary Assays:” for “System-Secondary Assays.”, “For replicon” for “For”, “ORN/C-5B/KE” for “ORN/C-5B/KE9”, “(Burke J. Am. Chem. Soc. (2004) 126:14095-14104).” for “to examine compound activity in a more authentic viral polyprotein context.”, “the Neomycin resistance cassette” for “neomycin”
# Secondary Assays—Hit Validation: 10 mM of stock solutions of the individual compounds to be tested were prepared in DMSO and stored at −20° C. Cells were seeded into 96-well plates at a density of 2,000 cells/well in 100 μl of medium. The cells were incubated for 24 hours at 37° C. to obtain the optimal level of adherence. Solutions of candidate hit compounds were added to wells to achieve varying final concentrations between 0.01 and 100 μM. The final concentration of DMSO or ethanol in every well was 1% or less by volume. Mock solutions were used as a negative control. Peginterferon-alfa-2b (PEG-Intron; Schering Corp.; Kenilworth, N.J.) and ribavirin (Sigma; St. Louis, Mo.) were used as positive controls at various concentrations, alone and in combination. The plates were then incubated at 37° C. with 5% CO2 for 48 hours before they were analyzed. Luminescent signal was generated using the Renilla luciferase assay kit (Promega; Madison, Wis.) according to the manufacturer's instructions. Signal was then detected using a LumiCount™ (Packard BioScience Company; Downers Grove, Ill.) luminometer.
# Huh7/Rep-Feo cells = assay: Primary HTS cell viability counter-screen (CellTiterGlo); format: cell-based, human; conditions: Table 2 antiviral hits of DOS set; approximately 10-50 μM, most at 33 μM; 48 hours
# Procedure: as §1
# Computational Data Analysis-Primary Screening. For each replicate, a mock-treatment distribution based on the total population of mock (DMSO) controls in that replicate was built (FIG. 11). Each compound was independently assigned a sign (ie, “+” or “−”) Z-score. Z-scores are calculated by dividing each background-subtracted, compound-treated well by the global standard deviation. A global standard deviation of the background-subtracted, mock-treated wells is calculated over the entire experiment. This distribution was determined to be consistent with experimental noise observed under cell-based assay conditions. The resulting collection of continuousvalued Z-scores represents the primary data set to be used for further analysis. The composite Z-score was calculated as a vector projection of each Z-score in duplicate onto an imaginary line of perfect reproducibility. Reproducibility is the cosine of the angle between each Z-score and that imaginary line; it is dimensionless and ranges from −1 to +1. […] The primary data were analyzed using the commercial software packages Pipeline Pilot (SciTegic, San Diego, Calif.) and SpotFire (SpotFire, Inc., Somerville, Mass.). The means of the negative, DMSO-only controls were considered the zero point.
# Primary Screening—HTS: Unless otherwise indicated, cells were incubated at all times in a humidified environment with 5% CO2 at 37° C. The assay was initiated by plating 30 μl of medium containing 2,000 cells/well into white 384-well opaque-bottom plates (Nunc; Rochester, N.Y.) using an automated plate filler (Bio-Tek μFiller; Winsooki, Vt.) and allowing the cells to adhere for 24 hours. 100 nl of compound stock solutions in DMSO were transferred from stock plates into the 384-well assay plates using an automated pin-based compound transfer robot (CyBio CyBi-Well vario; Woburn, Mass.). The final compound concentration in each well was estimated to be approximately 10-50 μM, with most compounds at 33 μM. The wells contained 0.33% DMSO by volume. The cells were then incubated for another 48 hours. […]
# [3] = known bioactives library, approximately 10-50 μM, most at 33 μM
compound,measurement,setting,value
"CC(C)c1c(C(=O)Nc2ccccc2)c(-c2ccccc2)c(-c2ccc(F)cc2)n1CC[C@@H](O)C[C@@H](O)CC(=O)O [Atorvastatin, atorvastatin, reference compound]",primary screen hit result (in words),[1],Antiviral
same,antiviral activity (in words),[2]; 48 hours,strong antiviral effects
COc1ccc(O[C@H]2C=C[C@@H](c3ccccc3)O[C@@H]2CO/N=C2/[C@H]3CCn4c(=O)n(-c5ccccc5)c(=O)n4[C@H]3[C@H](O)[C@@H]3O[C@H]23)cc1 [BUCMLD-B10A1],"R-CompZ, compositeZ score for reporter gene assay","[1]; Table 2 antiviral hits of DOS set, approximately 10-50 μM, most at 33 μM, 48 hours",−4.4774
same,"C-CompZ, compositeZ score for cell viability assay",Huh7/Rep-Feo cells,−1.5319
C=CC[C@@H]1C=C[C@H](O/N=C2/[C@H]3CCn4c(=O)n(-c5ccccc5)c(=O)n4[C@H]3[C@H](O)[C@@H]3O[C@H]23)[C@@H](CO)O1 [BUCMLD-B10A7],"R-CompZ, compositeZ score for reporter gene assay",[1],−3.3561
same,"C-CompZ, compositeZ score for cell viability assay",Huh7/Rep-Feo cells,1.1731
"CC[C@H](C)C(=O)O[C@H]1C[C@@H](C)C=C2C=C[C@H](C)[C@H](CC[C@@H]3C[C@@H](O)CC(=O)O3)[C@H]21 [Lovastatin, lovastatin]",antiviral activity (in words),[2]; 48 hours,weakly inhibitory
"CC(C)C[C@H](NC(=O)OCC1c2ccccc2-c2ccccc21)C(=O)O [N-(9-fluorenylmethoxycarbonyl)-L-leucine, reference compound]",primary screen hit result (in words),[1]; [3],proviral hit
same,primary screen hit result (in words),"[1]; known bioactives library, approximately 10-50 μM, most at 33 μM, listed as N-9-fluorenylmethoxycarbonyl-L-leucine",Proviral
same,proviral effect on HCV replication (in words),[2]; 48 hours,mild proviral activity
"CC[C@H](C)C(=O)O[C@H]1C[C@H](O)C=C2C=C[C@H](C)[C@H](CC[C@@H](O)C[C@@H](O)CC(=O)O)[C@H]21 [Pravastatin, pravastatin]",inhibition at 100 µM,"[2]; Hepatitis C virus, OR6, read-out: inhibition of HCV replication",30%
"Oc1ccc(-c2nc(-c3ccc(F)cc3)c(-c3ccncc3)[nH]2)cc1 [SB 202109, reference compound]",primary screen hit result (in words),[1]; [3],inactive
same,antiviral activity (in words),[2]; 48 hours,inactive
O=C1C2C=C(I)C(CC2OCCCCO)[C@@]12CCCO2 (some centres unmarked) [SM_A12B3],antiviral activity (in words),[2]; 48 hours,negligible antiviral activity
"C[C@]12C=CC(=O)C=C1CC[C@H]1[C@@H]3C[C@@H](O)[C@](O)(C(=O)CO)[C@@]3(C)C[C@H](O)[C@@]12F [Triamcinolone, triamcinolone, reference compound]",primary screen hit result (in words),[1],Proviral
same,proviral effect on HCV replication (in words),[2]; 48 hours,confirmed to increase HCV replication
"CC(C)C1COc2cc3oc(=O)ccc3cc2O1 (centres unmarked) [dihydrobliquin, reference compound]",primary screen hit result (in words),[1]; [3],Proviral
"CC(C)(O)[C@@H]1Cc2cc3ccc(=O)oc3cc2O1 [marmesin, reference compound]",primary screen hit result (in words),[1]; [3],Proviral
C[C@]12C=CC(=O)C=C1CC[C@@H]1[C@@H]2[C@@H](O)C[C@@]2(C)[C@H]1CC[C@]2(O)C(=O)CO [prednisolone],proviral effect on HCV replication (in words),[2]; 48 hours,increased HCV replication
"CC(C)NCC(O)COc1cccc2ccccc12 (centres unmarked) [propranolol, reference compound]",primary screen hit result (in words),[1],Antiviral
NC(=O)c1ncn([C@@H]2O[C@H](CO)[C@@H](O)[C@H]2O)n1 [ribavirin],IC50,"[2]; Hepatitis C virus, OR6, 48 h, read-out: IC50 (HCV RNA replication, luciferase), OR6 full-length genotype 1b replicon, 48 hours",50 to 100 µM
COc1ccc(CCN(C)CCCC(C#N)(c2ccc(OC)c(OC)c2)C(C)C)cc1OC (centres unmarked) [verapamil],antiviral activity (in words),[2]; 48 hours,did not exhibit antiviral activity
"CC1(C)C=Cc2cc3ccc(=O)oc3cc2O1 [xanthylentin, reference compound]",primary screen hit result (in words),[1]; [3],Proviral
